Experimental findings from paper PMC11845477, “Exploring the principles behind antibiotics with limited resistance” (Nature Communications, 2025) are described below.

Read-outs that look alike come from different tables or passages of the source.

The subject of assay [1] is K. pneumoniae ATCC 10031 (SEN) and K. pneumoniae ATCC 700603 (MDR). Briefly: Frequency-of-resistance (FoR) assay, relative MIC of mutants. The following applies: for Relative MIC / MIC of evolved line: Klebsiella pneumoniae ATCC 10031 (KP-SEN); for MIC: Klebsiella pneumoniae, read-out: MIC of evolved line, Klebsiella pneumoniae ATCC 10031 (KP-SEN). In kind it is cell-based, Klebsiella pneumoniae. How it is done: The susceptibility of antibiotics to resistance development was evaluated in two strains of each bacterial species: a multidrug-resistant strain and an antibiotic-sensitive strain of Escherichia coli, Klebsiella pneumoniae, Acinetobacter baumannii, and Pseudomonas aeruginosa. To explore first-step resistance, we previously used a standard protocol for spontaneous frequency-of-resistance analysis (FoR assay) at multiple concentrations of each antibiotic[10],[28],[31]–[33]. […] For all other combinations, approximately 10^10 bacterial cells were exposed to one of each antibiotic on agar plates for two days at concentrations where the given strain is susceptible. We examined resistance levels by contrasting the minimum inhibitory concentration (MICs) of the mutated strains to the original wild-type bacterial strain (i.e., relative MIC).
To estimate the frequency of spontaneous mutations that confer resistance in a microbial population, we conducted a frequency of resistance (FoR) assay following established protocols[10],[31]–[33]. […] Prior to plating, bacteria were grown overnight in MHB medium at 37 °C and 250 RPM, then centrifuged and washed in MHB. All experiments were performed in triplicate, and plates were incubated at 37 °C for 48 hours. Total colony-forming units (CFUs) were determined by plating appropriate dilutions onto antibiotic-free MHB agar. Resistance frequencies were calculated by dividing the number of resistant colonies by the initial viable cell count. From the plates with the highest antibiotic concentration, ten colonies were selected for MIC determination and whole-genome sequencing.
(§1) A robotic liquid handling system was used to automatically prepare a 11 to 16-step serial dilution in 384-well microtiter plates (Greiner). A final concentration of 5 × 10^5 bacterial cells per mL were inoculated into each well containing 60 µL MHB medium. Bacterial cultures were incubated at 37 °C with continuous shaking (Infors shaker, 900 rpm with 3 mm throw) for 18 hours (2 replicates from each). Cell growth was monitored by measuring the optical density (OD600 values, using Biotek Synergy microplate reader). MIC was defined as the antibiotic concentration of complete growth inhibition (i.e., OD600 < 0.05). Relative MIC was calculated as follows:1 relativeMIC=MICevolved/MICancestor […]
Supplementary Figure 3. Resistance levels following the frequency of resistance assay across bacterial strains. The level of resistance was measured as the fold change in relative MIC between evolved and ancestral strains. Data are grouped by bacterial strain (A. baumannii (AB), E. coli (EC), K. pneumoniae (KP), and P. aeruginosa (PA)) and categorized as either multidrug-resistant (MDR) or sensitive (SEN). Each data point represents a laboratory evolved line, and boxplots show the median, first and third quartiles, with whiskers indicating the 5th and 95th percentiles. […]
analysis was performed using two-sided Dunn’s post-hoc test with Benjamini-Hochberg correction for multiple comparisons (**/ * indicates p < 0.01/ 0.05). For detailed information on antibiotic and bacterial species, see Supplementary Table 1. For mode of action groups, refer to Table 1. Source data are provided as a Source Data file.

The test system is the same in assay [2]. Briefly: Adaptive laboratory evolution (ALE), relative MIC of evolved lines. In kind it is cell-based, Klebsiella pneumoniae. The following applies: for MIC of evolved line: KP-SEN (K. pneumoniae ATCC 10031).
Source text: Using the same set of bacterial strains, we initiated adaptive laboratory evolution with the aim to maximize the level of antibiotic resistance in the populations achieved during a longer, but fixed time period.
An established protocol for adaptive laboratory evolution[46],[73] was followed to propagate populations with the highest resistance levels. Starting with an antibiotic concentration that caused approximately 50% growth inhibition, ten parallel populations for each antibiotic-ancestor strain combination were grown for 72 hours at 37 °C with continuous shaking (300 RPM). MHB broth medium was used unless stated otherwise. After each incubation, 20 µl of each culture was transferred to four new wells containing fresh medium with increasing antibiotic concentrations (0.5×, 1×, 1.5×, and 2.5× the previous concentration) in a chessboard layout to monitor potential cross-contamination. Growth was monitored by measuring OD600 using a Biotek Synergy 2 microplate reader, and only populations grown in the highest drug concentration with an OD600 > 0.2 were transferred further.
as §1
Supplementary Figure 4. Resistance levels following adaptive laboratory evolution across bacterial strains. The level of resistance was measured as the fold change in relative MIC between evolved and ancestral strains after ~60 days of adaptive laboratory evolution. Data are grouped by bacterial strain (A. baumannii (AB), E. coli (EC), K. pneumoniae (KP), and P. aeruginosa (PA)) and categorized as either multidrug-resistant (MDR) or sensitive (SEN). Each data point represents a laboratory evolved line, and boxplots show the median, first and third quartiles, with whiskers indicating the 5th and 95th percentiles.
Statistical analysis was performed using two-sided Dunn’s post-hoc test with Benjamini-Hochberg correction for multiple comparisons (****/ ***/ **/ * indicates p < 0.0001/ 0.001/ 0.01/ 0.05). For detailed information on antibiotic and bacterial species, see Supplementary Table 1. For mode of action groups, refer to Table 1. Source data are provided as a Source Data file.

Where [3] appears, read: KP-SEN (Klebsiella pneumoniae ATCC 10031), evolved line 6.
[4] abbreviates: KP-SEN (Klebsiella pneumoniae ATCC 10031), evolved line 8.
Where [5] appears, read: KP-SEN (Klebsiella pneumoniae ATCC 10031), evolved line 10.
The mark [6] stands for this setting: Klebsiella pneumoniae ATCC 10031 (KP-SEN), evolved line 1.
The mark [7] stands for this setting: Klebsiella pneumoniae ATCC 10031 (KP-SEN), evolved line 2.
[8] abbreviates: Klebsiella pneumoniae ATCC 10031 (KP-SEN), evolved line 4.

The term MIC denotes the lowest concentration found to suppress growth. Consider `C[C@@H]1CN2c3c(cc4c(N5C(=O)OC[C@@H]5C)noc4c3F)CC3(C(=O)NC(=O)NC3=O)[C@H]2[C@H](C)O1` [Zoliflodacin], for which the “Relative MIC” value in assay [1] (evolved line 1 versus ancestor) worked out at 32; in assay [1] (evolved line 2 versus ancestor) it was 128; in assay [1] (evolved line 3 versus ancestor), 128; in assay [2] (KP-SEN (ATCC 10031), evolved line 1, evolved vs ancestor), 1024; in assay [2] (KP-SEN (ATCC 10031), evolved line 2, evolved vs ancestor), 1024; in assay [2] (KP-SEN (ATCC 10031), evolved line 3, evolved vs ancestor) it was 512. For the same compound, the “Relative MIC” value in assay [2] (KP-SEN (ATCC 10031), evolved line 4, evolved vs ancestor) was 1024; in assay [2] (KP-SEN (ATCC 10031), evolved line 5, evolved vs ancestor) it was 1024; in assay [2] (KP-SEN (ATCC 10031), evolved line 6, evolved vs ancestor) it was 1024; in assay [2] (KP-SEN (ATCC 10031), evolved line 7, evolved vs ancestor), 1024; in assay [2] (KP-SEN (ATCC 10031), evolved line 8, evolved vs ancestor), 1024; in assay [2] (KP-SEN (ATCC 10031), evolved line 10, evolved vs ancestor), 1024. Also, the “Relative MIC” value in assay [2] (setting [6]) is listed as 1024; in assay [2] (setting [7]) it was 1024; in assay [2] (Klebsiella pneumoniae ATCC 10031 (KP-SEN), evolved line 3), 512; in assay [2] (setting [8]), 1024; in assay [2] (Klebsiella pneumoniae ATCC 10031 (KP-SEN), evolved line 5) it was 1024; in assay [2] (Klebsiella pneumoniae ATCC 10031 (KP-SEN), evolved line 6), 1024. The “Relative MIC” value in assay [2] (Klebsiella pneumoniae ATCC 10031 (KP-SEN), evolved line 7) stood at 1024; in assay [2] (Klebsiella pneumoniae ATCC 10031 (KP-SEN), evolved line 8) it was 1024; in assay [2] (Klebsiella pneumoniae ATCC 10031 (KP-SEN), evolved line 10), 1024. The MIC in assay [1] (evolved line 1) was determined as 4 µg/mL; in assay [1] (evolved line 2), 16 µg/mL; in assay [1] (evolved line 3) it was 16 µg/mL. Further, the “Relative MIC (log10)” value in assay [2] (KP-SEN (Klebsiella pneumoniae ATCC 10031), evolved line 2) was 3.0103 log10; in assay [2] (KP-SEN (Klebsiella pneumoniae ATCC 10031), evolved line 4), 3.0103 log10; in assay [2] (setting [3]), 3.0103 log10; in assay [2] (setting [4]), 3.0103 log10; in assay [2] (setting [5]), 3.0103 log10.
Regarding Tridecaptin M152-P3, the MIC of evolved line in assay [1] (evolved line 1) stood at 16 µg/mL; in assay [1] (evolved line 2) it was 8 µg/mL; in assay [1] (evolved line 3), 16 µg/mL; in assay [2] (evolved line 2 of the given antibiotic) it was 32 µg/mL; in assay [2] (evolved line 4 of the given antibiotic), 8 µg/mL; in assay [2] (evolved line 5 of the given antibiotic), 64 µg/mL. Further, the MIC of evolved line was found to be 64 µg/mL in assay [2] (evolved line 6 of the given antibiotic), 64 µg/mL in assay [2] (evolved line 7 of the given antibiotic) and 4 µg/mL in assay [2] (evolved line 8 of the given antibiotic).
In the case of `CNC(C)C1CCC(N)C(OC2C(N)CC(N)C(OC3OCC(C)(O)C(NC)C3O)C2O)O1` (stereo not shown) [Gentamicin], the “Relative MIC” value worked out at 2 in assay [1] (evolved line 1 versus ancestor); 2 in assay [1] (evolved line 2 versus ancestor); 32 in assay [1] (evolved line 3 versus ancestor); 64 in assay [2] (setting [3]); 128 in assay [2] (setting [4]); 128 in assay [2] (KP-SEN (Klebsiella pneumoniae ATCC 10031), evolved line 9). The “Relative MIC” value in assay [2] (setting [5]) amounted to 128; in assay [2] (KP-SEN, Klebsiella pneumoniae ATCC 10031, evolved line 1 versus ancestor), 64; in assay [2] (KP-SEN, Klebsiella pneumoniae ATCC 10031, evolved line 2 versus ancestor), 128; in assay [2] (KP-SEN, Klebsiella pneumoniae ATCC 10031, evolved line 4 versus ancestor), 64; in assay [2] (KP-SEN, Klebsiella pneumoniae ATCC 10031, evolved line 5 versus ancestor), 64; in assay [2] (KP-SEN, Klebsiella pneumoniae ATCC 10031, evolved line 6 versus ancestor), 64. Moreover, the “Relative MIC” value in assay [2] (KP-SEN, Klebsiella pneumoniae ATCC 10031, evolved line 7 versus ancestor) was 64; in assay [2] (KP-SEN, Klebsiella pneumoniae ATCC 10031, evolved line 8 versus ancestor), 128; in assay [2] (KP-SEN, Klebsiella pneumoniae ATCC 10031, evolved line 9 versus ancestor) it was 128; in assay [2] (KP-SEN, Klebsiella pneumoniae ATCC 10031, evolved line 10 versus ancestor) it was 128; in assay [2] (KP-SEN, Klebsiella pneumoniae ATCC 10031, evolved line 5), 64; in assay [2] (KP-SEN, Klebsiella pneumoniae ATCC 10031, evolved line 7), 64. In addition, the “Relative MIC” value in assay [2] (setting [6]) is reported as 64; in assay [2] (setting [7]) it was 128; in assay [2] (setting [8]) it was 64. For the same compound, the MIC is 0.5 µg/mL in assay [1] (evolved line 1), 0.5 µg/mL in assay [1] (evolved line 2) and 8 µg/mL in assay [1] (evolved line 3). The “Relative MIC (log10)” value in assay [2] (KP-SEN (Klebsiella pneumoniae ATCC 10031), evolved line 2 adapted to the named antibiotic) is reported as 2.107; in assay [2] (KP-SEN (Klebsiella pneumoniae ATCC 10031), evolved line 4 adapted to the named antibiotic), 1.806; in assay [2] (KP-SEN (Klebsiella pneumoniae ATCC 10031), evolved line 5 adapted to the named antibiotic), 1.806; in assay [2] (KP-SEN (Klebsiella pneumoniae ATCC 10031), evolved line 6 adapted to the named antibiotic), 1.806; in assay [2] (KP-SEN (Klebsiella pneumoniae ATCC 10031), evolved line 8 adapted to the named antibiotic), 2.107.
